Source: patent publication US8501936B2 (priority 2009, dated 2013)

How the values were obtained:
human JAK2 = human JAK2 (Homo sapiens (Human), UniProt O60674); conditions: read-out: JAK2 IC50
human FAK = human FAK (Homo sapiens (Human), UniProt Q05397); conditions: read-out: FAK IC50
Sequence of human FAK (Q05397 whole entry): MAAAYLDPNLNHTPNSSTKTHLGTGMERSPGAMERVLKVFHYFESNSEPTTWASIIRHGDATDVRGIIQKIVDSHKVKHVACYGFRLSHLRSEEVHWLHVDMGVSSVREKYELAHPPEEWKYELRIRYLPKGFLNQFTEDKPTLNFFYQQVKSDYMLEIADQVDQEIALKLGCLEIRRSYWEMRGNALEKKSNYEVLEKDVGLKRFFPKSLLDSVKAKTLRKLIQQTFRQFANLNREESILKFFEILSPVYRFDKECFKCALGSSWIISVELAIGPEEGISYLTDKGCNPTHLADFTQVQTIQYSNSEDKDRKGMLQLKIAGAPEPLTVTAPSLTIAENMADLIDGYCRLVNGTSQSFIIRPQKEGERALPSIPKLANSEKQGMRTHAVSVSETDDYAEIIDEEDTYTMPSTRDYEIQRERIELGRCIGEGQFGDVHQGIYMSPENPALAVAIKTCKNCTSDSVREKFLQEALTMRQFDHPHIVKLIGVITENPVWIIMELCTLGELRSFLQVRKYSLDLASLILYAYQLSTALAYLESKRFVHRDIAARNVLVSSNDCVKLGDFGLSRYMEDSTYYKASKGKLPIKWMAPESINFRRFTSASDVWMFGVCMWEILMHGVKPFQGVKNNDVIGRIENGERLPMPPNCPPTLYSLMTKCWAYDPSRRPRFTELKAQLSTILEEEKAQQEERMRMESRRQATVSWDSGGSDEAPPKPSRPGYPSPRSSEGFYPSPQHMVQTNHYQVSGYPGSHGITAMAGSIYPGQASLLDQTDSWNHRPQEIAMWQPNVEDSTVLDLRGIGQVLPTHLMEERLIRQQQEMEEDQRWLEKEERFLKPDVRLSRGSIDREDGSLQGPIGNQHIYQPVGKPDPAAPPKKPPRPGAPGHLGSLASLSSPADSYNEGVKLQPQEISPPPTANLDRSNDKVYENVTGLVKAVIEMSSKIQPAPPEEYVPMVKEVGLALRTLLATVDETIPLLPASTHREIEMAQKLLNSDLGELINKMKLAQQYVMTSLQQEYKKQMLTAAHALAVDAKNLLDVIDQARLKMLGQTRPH

Sequence of human JAK2 (O60674 815-1132): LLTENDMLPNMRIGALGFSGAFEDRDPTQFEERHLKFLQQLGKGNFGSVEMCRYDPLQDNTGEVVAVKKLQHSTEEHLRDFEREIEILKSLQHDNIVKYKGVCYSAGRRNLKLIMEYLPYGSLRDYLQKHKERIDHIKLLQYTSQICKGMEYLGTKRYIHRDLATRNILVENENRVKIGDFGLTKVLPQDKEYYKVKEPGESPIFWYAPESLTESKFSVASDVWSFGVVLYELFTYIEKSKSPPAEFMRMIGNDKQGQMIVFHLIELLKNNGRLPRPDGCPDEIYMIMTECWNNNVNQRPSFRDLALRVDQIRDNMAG

SMILES	IC50 (human JAK2) [nM]	IC50 (human FAK) [nM]
COc1ncccc1-c1cccn2nc(Nc3ccc(C4CCN(CC(=O)N(C)C)CC4)cc3)nc12 [Example 273, 2-(4-{4-[8-(2-Methoxy-pyridin-3-yl)-[1,2,4]triazolo[1,5-a]pyridine-2-ylamino]-phenyl}-piperidin-1-yl)-N,N-dimethyl-acetamide]	251	999
CN1CCN(c2ccc(Nc3nc4c(C#Cc5ccccc5N(C)S(C)(=O)=O)cccn4n3)cc2)CC1 [Example 189, N-Methyl-N-(2-{2-[4-(4-methyl-piperazin-1-yl)-phenylamino]-[1,2,4]triazolo[1,5-a]pyridin-8-ylethynyl}-phenyl)-methanesulfonamide]	2.61	522
COc1ccccc1CNc1cccn2nc(Nc3ccnc(C)c3)nc12 [Example 404, N(8)-(2-Methoxy-benzyl)-N(2)-(2-methyl-pyridin-4-yl)-[1,2,4]triazolo[1,5-a]pyridine-2,8-diamine]	24.7	2580
CN1CCC(c2ccc(Nc3nc4c(Nc5ccccc5S(C)(=O)=O)cccn4n3)cc2)CC1 [Example 125, N(8)-(2-Methanesulfonyl-phenyl)-N(2)-[4-(1-methyl-piperidin-4-yl)-phenyl]-[1,2,4]triazolo[1,5-a]pyridine-2,8-diamine]	6.6	2050
CN1CCN(c2ccc(Nc3nc4c(NCc5ccccc5S(C)(=O)=O)cccn4n3)cc2)CC1 [Example 138, N(8)-(2-Methanesulfonyl-benzyl)-N(2)-[4-(4-methyl-piperazin-1-yl)-phenyl]-[1,2,4]triazolo[1,5-a]pyridine-2,8-diamine]	13.2	199
CCOc1ccccc1-c1cccn2nc(Nc3ccc4c(c3)CCN(CC(=O)N(C)C)CC4)nc12 [Example 246]	212	10000
CN1CCN(c2cccc(Nc3nc4c(-c5ccc(N(C)S(C)(=O)=O)cc5)cccn4n3)c2)CC1 [Example 63, N-Methyl-N-(4-{2-[3-(4-methyl-piperazin-1-yl)-phenylamino]-[1,2,4]triazolo[1,5-a]pyridin-8-yl}-phenyl)-methanesulfonamide]	0.6	1350
CS(=O)(=O)c1ccccc1CNc1cccn2nc(Nc3ccc(OCCN4CCCC4)cc3)nc12 [Example 141, N(8)-(2-Methanesulfonyl-benzyl)-N(2)-[4-(2-pyrrolidin-1-yl-ethoxy)-phenyl]-[1,2,4]triazolo[1,5-a]pyridine-2,8-diamine]	15.1	98.8
COc1cccc(CNc2cccn3nc(Nc4ccc(N5CCN(C)CC5)cc4)nc23)c1 [Example 390, N(8)-(3-Methoxy-benzyl)-N(2)-[4-(4-methyl-piperazin-1-yl)-phenyl]-[1,2,4]triazolo[1,5-a]pyridine-2,8-diamine]	1340	10000
COc1ccc(C(F)(F)F)cc1-c1cccn2nc(Nc3ccc4c(c3)CCN(C(=O)OC(C)(C)C)C4)nc12 [Example 336, 6-[8-(2-Methoxy-5-trifluoromethyl-phenyl)-[1,2,4]triazolo[1,5-a]pyridin-2-ylamino]-3,4-dihydro-1H-isoquinoline-2-carboxylic acid tert-butyl ester]	1150	10000
CN1CCN(c2ccc(Nc3nc4c(/C=C/c5ccccc5N(C)S(C)(=O)=O)cccn4n3)cc2)CC1 [Example 196, N-Methyl-N-[2-((E)-2-{2-[4-(4-methyl-piperazin-1-yl)-phenylamino]-[1,2,4]triazolo[1,5-a]pyridin-8-yl}-vinyl)-phenyl]-methanesulfonamide]	32.1	999
COCc1ccccc1-c1cccc2nc(Nc3ccc4c(c3)CCN(C(=O)OC(C)(C)C)CC4)nn12 [Example 226, 7-[5-(2-Methoxymethyl-phenyl)-[1,2,4]triazolo[1,5-a]pyridin-2-ylamino]-1,2,4,5-tetrahydro-benzo[d]azepine-3-carboxylic acid tert-butyl ester]	650	10000
CCN1CCP(=O)(c2ccc(Nc3nc4c(-c5ccc(S(C)(=O)=O)cc5)cccn4n3)cc2)CC1 [Example 411, N-[4-(1-ethyl-4-oxido-1,4-azaphosphinan-4-yl)phenyl]-8-[4-(methylsulfonyl)phenyl][1,2,4]triazolo[1,5-a]pyridin-2-amine]	1.62	1860
CN1CCN(c2ccc(Nc3nc4cccc(-c5cccc(S(C)(=O)=O)c5)n4n3)cc2)CC1 [Example 82, [5-(3-Methanesulfonyl-phenyl)-[1,2,4]triazolo[1,5-a]pyridin-2-yl]-[4-(4-methyl-piperazin-1-yl)-phenyl]-amine]	9.2	584
CCOc1ccc(C(F)(F)F)cc1-c1cccn2nc(Nc3ccc4c(c3)CCNCC4)nc12 [Example 319]	137	1310
CN1CCN(c2ccc(Nc3nc4c(N(C)Cc5ccccc5N(C)S(C)(=O)=O)cccn4n3)cc2)CC1 [Example 185, N-Methyl-N-{2-[(methyl-{2-[4-(4-methyl-piperazin-1-yl)-phenylamino]-[1,2,4]triazolo[1,5-a]pyridin-8-yl}-amino)-methyl]-phenyl}-methanesulfonamide]	51.1	62.5

SMILES	IC50 (human JAK2) [nM]	IC50 (human FAK) [nM]
COc1ccc(Nc2nc3cccc(-c4ccc(S(C)(=O)=O)cc4)n3n2)cc1 [Example 91, [5-(4-Methanesulfonyl-phenyl)-[1,2,4]triazolo[1,5-a]pyridin-2-yl]-(4-methoxy-phenyl)-amine]	1.9	2600
CN1CCN(Cc2ccc(Nc3nc4c(-c5ccc(S(C)(=O)=O)cc5)cccn4n3)cc2)CC1 [Example 44, [8-(4-Methanesulfonyl-phenyl)-[1,2,4]triazolo[1,5-a]pyridin-2-yl]-[4-(4-methyl-piperazin-1-ylmethyl)-phenyl]-amine]	2.4	1130
CN(c1ccccc1CNc1cccn2nc(Nc3ccccc3)nc12)S(C)(=O)=O [Example 202, N-Methyl-N-{2-[(2-phenylamino-[1,2,4]triazolo[1,5-a]pyridin-8-ylamino)-methyl]-phenyl}-methanesulfonamide]	571	189
CCn1cc(Nc2nc3c(-c4ccc(S(C)(=O)=O)cc4)cccn3n2)cn1 [Example 209, (1-Ethyl-1H-pyrazol-4-yl)-[8-(4-methanesulfonyl-phenyl)-[1,2,4]triazolo[1,5-a]pyridin-2-yl]-amine]	1.88	10000
CN1CCN(c2ccc(Nc3nc4c(NCc5cccc(N(C)S(C)(=O)=O)c5)cccn4n3)cc2)CC1 [Example 169, N-Methyl-N-[3-({2-[4-(4-methyl-piperazin-1-yl)-phenylamino]-[1,2,4]triazolo[1,5-a]pyridin-8-ylamino}-methyl)-phenyl]-methanesulfonamide]	145	6500
CN(c1ncccc1CNc1cccn2nc(Nc3ccc(N4CCN(CCO)CC4)cc3)nc12)S(C)(=O)=O [Example 155, N-{3-[(2-{4-[4-(2-Hydroxy-ethyl)-piperazin-1-yl]-phenylamino}-[1,2,4]triazolo[1,5-a]pyridin-8-ylamino)-methyl]-pyridin-2-yl}-N-methyl-methanesulfonamide]	36	379
CN1Cc2ccc(Nc3nc4c(NCc5ccccc5N(C)S(C)(=O)=O)cccn4n3)cc2C1 [Example 167, N-Methyl-N-(2-{[2-(2-methyl-2,3-dihydro-1H-isoindol-5-ylamino)-[1,2,4]triazolo[1,5-a]pyridin-8-ylamino]-methyl}-phenyl)-methanesulfonamide]	9.19	17.8
CN(C)C(=O)N1CCc2ccc(Nc3nc4c(-c5cc(Cl)ccc5OCC(F)F)cccn4n3)cc2CC1 [Example 382, 7-{8-[5-Chloro-2-(2,2-difluoro-ethoxy)-phenyl]-[1,2,4]triazolo[1,5-a]pyridin-2-ylamino}-1,2,4,5-tetrahydro-3-benzazepine-3-carboxylic acid dimethylamide]	198	2000
CN1CCN(c2cccc(Nc3nc4c(NCc5cccc(S(C)(=O)=O)c5)cccn4n3)c2)CC1 [Example 161, N(8)-(3-Methanesulfonyl-benzyl)-N(2)-[3-(4-methyl-piperazin-1-yl)-phenyl]-[1,2,4]triazolo[1,5-a]pyridine-2,8-diamine]	399	10000
CC(C)COc1ccc(C(F)(F)F)cc1-c1cccn2nc(Nc3ccc4c(c3)CCN(CC(=O)N(C)C)CC4)nc12 [Example 380]	3000	3000
CN1CCN(c2ccc(Nc3nc4cccc(-c5cccc(NS(C)(=O)=O)c5)n4n3)cc2)CC1 [Example 83, N-(3-{2-[4-(4-Methyl-piperazin-1-yl)-phenylamino]-[1,2,4]triazolo[1,5-a]pyridin-5-yl}-phenyl)-methanesulfonamide]	19	553
CN1CCN(c2ccc(Nc3nc4c(Nc5cccnc5N(C)S(C)(=O)=O)cccn4n3)cc2)CC1 [Example 131, N-Methyl-N-(3-{2-[4-(4-methyl-piperazin-1-yl)-phenylamino]-[1,2,4]triazolo[1,5-a]pyridin-8-ylamino}-pyridin-2-yl)-methanesulfonamide]	11.4	1370
COc1ccc(CNc2cccn3nc(Nc4ccc(N5CCN(C)CC5)cc4)nc23)cc1 [Example 391, N(8)-(4-Methoxy-benzyl)-N(2)-[4-(4-methyl-piperazin-1-yl)-phenyl]-[1,2,4]triazolo[1,5-a]pyridine-2,8-diamine]	3020	10000
CC(C)(O)CN1CCN(c2cccc(Nc3nc4c(-c5ccc(S(C)(=O)=O)cc5)cccn4n3)c2)CC1 [Example 144, 1-(4-{3-[8-(4-Methanesulfonyl-phenyl)-[1,2,4]triazolo[1,5-a]pyridin-2-ylamino]-phenyl}-piperazin-1-yl)-2-methyl-propan-2-ol]	2.61	2050
COc1ccc(C(F)(F)F)cc1-c1cccn2nc(Nc3ccc4c(c3)CCN(CCS(C)(=O)=O)CC4)nc12 [Example 322, [3-(2-Methanesulfonyl-ethyl)-2,3,4,5-tetrahydro-1H-3-benzazepin-7-yl]-[8-(2-methoxy-5-trifluoromethyl-phenyl)-[1,2,4]triazolo[1,5-a]pyridine-2-yl]-amine]	12.7	572
